Measured values from patent US20230391765A1, “HETEROBIFUNCTIONAL COMPOUNDS AS DEGRADERS OF ENL” (ICAHN SCHOOL OF MEDICINE AT MOUNT SINAI, priority 2020, published 2023).

Assays:
ENL = target: T1, ENL (Homo sapiens, UniProt Q03111); assay: Western blot of ENL protein levels in MOLM13 cells; format: cell-based
T1 construct: Cells were lysed and expression of endogenous ENL was assessed by Western blot analysis; host or cells: MV4;11
T1 sequence (Q03111 1-559): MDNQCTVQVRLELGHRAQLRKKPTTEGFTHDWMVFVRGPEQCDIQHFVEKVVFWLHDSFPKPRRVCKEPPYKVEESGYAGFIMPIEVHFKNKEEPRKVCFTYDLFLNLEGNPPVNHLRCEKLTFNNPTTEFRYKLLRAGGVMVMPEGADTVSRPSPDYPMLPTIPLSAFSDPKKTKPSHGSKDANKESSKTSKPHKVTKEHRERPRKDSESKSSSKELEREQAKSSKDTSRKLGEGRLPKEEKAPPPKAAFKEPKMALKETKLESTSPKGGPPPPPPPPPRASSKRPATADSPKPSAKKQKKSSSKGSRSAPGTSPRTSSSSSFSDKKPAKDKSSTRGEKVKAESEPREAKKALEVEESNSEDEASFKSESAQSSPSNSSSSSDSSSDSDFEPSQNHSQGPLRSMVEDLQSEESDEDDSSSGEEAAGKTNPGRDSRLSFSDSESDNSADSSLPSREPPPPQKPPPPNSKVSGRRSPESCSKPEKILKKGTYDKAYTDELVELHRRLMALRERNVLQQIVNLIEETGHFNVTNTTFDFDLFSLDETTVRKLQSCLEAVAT
Summary of the method: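 Leukemia cells (MOLM13, MV4;11, Jurkat) treated with degraders in DMSO at 0–10 μM for 6 h or 24 h, or at 4 μM (MV4;11) / 8 μM (MOLM13) over 12–36 h. ENL levels read by Western blot of total lysates, GAPDH/β-actin loading controls; DMSO vehicle control.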

MOLM13 cells = assay: Apoptosis assay (FITC Annexin V), MOLM13 cells; format: cell-based; conditions: MOLM13 cells, 1, 2 and 4 μM for 24 h
Description: Apoptotic cells were measured by the FITC Annexin V Apoptosis Detection Kit (BD Biosciences).
MV4; 11 or MOLM13 cells were seeded at 0.2×10^6 cells/mL density. Cells were treated with DMSO or ENL degraders at indicated concentrations. Each treatment was done in triplicates. After 24 h treatment, cells were collected and washed with ice-cold PBS once and resuspended in 250 μL of 1× binding buffer containing 5 μL of FITC-Annexin V and PI (BD Biosciences). After 15 min incubation at room temperature in the dark, 250 μL of 1× binding buffer was added and flow cytometry analysis was performed.

[1] = system: ENL-dependent MOLM13 leukemia cells; assay: Cell viability (CellTiter-Glo), MOLM13 cells; format: cell-based; conditions: MOLM13 cells, 0.5, 1, 2 and 4 μM for 72 h
Description: MV4; 11 (FIG. 13A), MOLM13 (FIG. 13B) and Jurkat (FIG. 13C) cells were seeded at 2×10^5 cells/mL density and treated with DMSO or indicated compounds 0.5, 1, 2 and 4 μM for 72 h. Cell viability was measured using CellTiter-Glo reagent (Promega) and relative cell viability was calculated by normalization to DMSO samples.
MV4; 11 or MOLM13 cells were seeded at 0.2×10^6 cells/mL density. Cells were treated with DMSO or ENL degraders at indicated concentrations. Each treatment was done in triplicates. After 72 h treatment, 100 μL of cell suspension from each treatment was mixed with 25 μL of CellTiter-Glo reagent (Promega) and incubated for 10 min before the luminescence signals were detected on a plate reader.

[2] = In vivo pharmacokinetics (PK) study, plasma concentration; parameters: species or system C57BL/6 mice; conditions: mice, single 50 mg/kg IP injection
Description: Three C57BL/6 mice at 6-8 weeks of age were used in PK study for each time point. After a single dose intraperitoneal (IP) injection of ENL degrader LQ076-122 (50 mg/kg), plasma concentrations of degrader were measured at 6 time points (0.5, 1, 2, 4, 8 and 12 h) from each test animal. The concentrations of LQ076-122 in plasma were maintained above 2 μM for 6 h with the maximum plasma concentration of about 6 μM.
The standard mouse PK study was conducted by Charles River Laboratories. Three C57BL/6 mice at 6-8 weeks of age were used for each time point. After a single dose intraperitoneal (IP) injection of ENL degrader (50 mg/kg), plasma concentrations of degrader were measured at […] (in hours: 0.5, 1, 2, 4, 8 and 12 h) from each test animal.

GAS41 = target: T2, GAS41 (Homo sapiens, UniProt O95619); assay: Western blot of GAS41 protein level in MV4; 11 cells; format: cell-based; conditions: 11 cells, 0.3, 1, 3, 10 and 30 μM for 24 h
T2 construct: host or cells: MV4;11
T2 sequence (O95619 whole entry): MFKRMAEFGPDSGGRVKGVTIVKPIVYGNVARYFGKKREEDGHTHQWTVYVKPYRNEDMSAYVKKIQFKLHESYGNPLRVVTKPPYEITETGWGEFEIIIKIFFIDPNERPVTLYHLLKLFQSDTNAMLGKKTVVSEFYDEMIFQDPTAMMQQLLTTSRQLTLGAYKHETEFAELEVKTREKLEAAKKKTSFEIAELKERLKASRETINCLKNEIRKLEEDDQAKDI
Description: MV4; 11 cells were treated with LQ076-122, or LQ081-107 at 0.3, 1, 3, 10, and 30 μM for 24 h. DMSO treated cells were used as control. Cells were lysed and expression of ENL and GAS41 was assessed by Western analysis.
After ENL degrader treatment, cells were collected, lysed, and total cell lysates were used for Western blot. The following primary antibodies were used: ENL (Cell Signaling Technology), GAS41 (Santa Cruz), GAPDH (Santa Cruz), β-actin (Sigma). Blots were detected using HRP-conjugated secondary antibodies.

For `Cc1ncsc1-c1ccc(CNC(=O)[C@@H]2C[C@@H](O)CN2C(=O)[C@@H](NC(=O)CCCCCCCCCCNC(=O)c2ccc(C(=O)Nc3ccc4[nH]c(CN5CCC[C@@H]5C)nc4c3)cc2)C(C)(C)C)cc1` [LQ076-122, N^1-(11-(((S)-1-((2S,4R)-4-hydroxy-2-((4-(4-methylthiazol-5-yl)benzyl)carbamoyl)pyrrolidin-1-yl)-3,3-dimethyl-1-oxobutan-2-yl)amino)-11-oxoundecyl)-N^4-(2-(((S)-2-methylpyrrolidin-1-yl)methyl)-1H-benzo[d]imidazol-5-yl)terephthalamide], the “reduction of ENL protein levels” value (ENL; 0-8 μM for 24 h) was “reduced ENL protein levels in a concentration-dependent manner”, the “reduction of ENL protein levels, time course” value (ENL; 8 μM for 12, 16, 20, 24 and 36 h) was “reduced ENL protein levels in a time-dependent manner” and the induction of apoptosis (MOLM13 cells) was “induced apoptosis”. The “suppression of cell growth (relative cell viability)” value [1] was “selectively suppressed cell growth”, the “concentration in plasma maintained for 6 h” value [2] was “above 2 μM” and the maximum plasma concentration [2] was “about 6 μM”. For the same molecule, the “reduction of GAS41 protein level” value (GAS41) was “but not the level of another YEATS domain-containing protein GAS41”.
